PubChem BioAssay (NCI)
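A five-concentration, 48-hour dose response in 96-well plates underlies each endpoint, interpolated linearly between surrounding concentrations. TGI marks complete inhibition of growth.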

Legend:
Experiment in all cases: inhibition of tumour cell growth, NCI panel, 48 h
A498 renal = system: A498 renal
A549 NSCLC = system: A549 NSCLC
EKVX NSCLC = system: EKVX NSCLC
IGROV1 ovarian = system: IGROV1 ovarian
KM12 colon = system: KM12 colon
PC-3 prostate = system: PC-3 prostate
RPMI-8226 leukemia = system: RPMI-8226 leukemia
SK-MEL-5 melanoma = system: SK-MEL-5 melanoma
SK-OV-3 ovarian = system: SK-OV-3 ovarian
SN12C renal = system: SN12C renal
SNB-75 CNS = system: SNB-75 CNS
UACC-62 melanoma = system: UACC-62 melanoma

Measured: TGI

NC(=O)CCC(NC(=O)c1c2ccccc2nc2ccccc12)C(=O)O (stereo unspecified)
> 100 µM: all assays above

Cc1cn(C2CCN(CC3COC(C)(C)O3)O2)c(=O)[nH]c1=O (stereo unspecified)
> 100 µM: all assays above

O=C(CN=C(CN(c1ccccc1)c1ccccc1)Oc1ccc(Cl)cc1Cl)n1ccnc1
> 100 µM: all assays above
